Experimental findings from patent publication US5387602A, “1.5-diphenyl-3-(N-hydroxycarbamoyloxyalkyl)pyrazoles” (Ortho Pharmaceutical Corporation, priority 1993, dated 1995) are described below.

Assay [1] has as its target T1, Sheep Seminal Vesicle Cyclooxygenase (Ovis aries, UniProt P05979).
T1 construct: purchased Biomol (Plymouth Meeting, Pa.); host or cells: sheep seminal vesicle
T1 sequence (P05979 25-600): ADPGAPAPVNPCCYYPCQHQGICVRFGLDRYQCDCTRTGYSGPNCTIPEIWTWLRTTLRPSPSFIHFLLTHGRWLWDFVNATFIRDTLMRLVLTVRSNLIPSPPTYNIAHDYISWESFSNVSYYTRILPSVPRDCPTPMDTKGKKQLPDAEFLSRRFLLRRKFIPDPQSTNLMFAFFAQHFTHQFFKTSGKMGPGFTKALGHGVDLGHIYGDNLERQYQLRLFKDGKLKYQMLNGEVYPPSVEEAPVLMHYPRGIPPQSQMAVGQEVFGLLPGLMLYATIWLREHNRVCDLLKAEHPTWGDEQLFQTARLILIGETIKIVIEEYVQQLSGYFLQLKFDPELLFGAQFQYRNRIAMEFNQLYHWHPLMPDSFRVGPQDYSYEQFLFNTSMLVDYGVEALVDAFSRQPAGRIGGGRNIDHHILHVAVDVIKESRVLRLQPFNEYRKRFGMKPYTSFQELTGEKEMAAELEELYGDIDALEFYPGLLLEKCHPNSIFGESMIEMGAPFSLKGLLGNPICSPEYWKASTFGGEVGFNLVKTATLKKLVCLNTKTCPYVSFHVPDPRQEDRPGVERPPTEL
In words: Procedure I: sheep seminal vesicle (SSV) cyclooxygenase inhibition. The conditions noted are these: for IC50: SSV CO; for % INHIB. CO (Procedure I): dose 3 MPK unless otherwise stated (so in the source). The class given is biochemical. As to the method:
Sheep Seminal Vesicle Cyclooxygenase Sheep seminal vesicle (SSV) cyclooxygenase (95% pure, prostaglandin endoperoxide synthase, EC 1.14.99.1 specific activity 24 units/mg protein) obtained as a lyophilized powder from Biomol (Plymouth Meeting, Pa.) was reconstituted at a concentration of 59 mg/mL in Hanks' Balanced Salt Solution (HBSS). The enzyme was divided into 200 μL aliquots, snap frozen with liquid N2, and stored at -70° C. until immediately prior to use. Measurements of CO activity were carried out in polypropylene tubes containing 495 μL of HBSS to which was added 5 μL Of inhibitor or dimethylsulfoxide (DMSO; vehicle control) and 6 μL of SSV CO solution. The tubes were mixed on a vortex shaker, preincubated for 5 min at 37° C. prior to the initiation of the reaction. The reaction was started by the addition of [^14 C]-arachidonic acid (1-^14 C-AA, Amersham, Arlington Heights, Ill.) in 10 μL of methanol. Tubes were again vortexed and incubated in a water bath for 20 minutes after which the tubes were removed and the reaction stopped by acidification with the addition of 1 mL 2M formic acid. Lipophilic products were extracted with 3 mL chloroform and concentrated to dryness under N2. Each pellet was reconstituted with 40 μL of chloroform and spotted on a Whatman Silicon thin-layer chromatography plate and developed in a chromatography tank containing A-9 solvent (11:5:2:1 V:V:V:V, ethyl acetate:trimethyl-pentane:acetic acid:double distilled-H2 O). Radioactive cyclooxygenase products (prostaglandin D2, prostaglandin E2, etc.) were measured using a Bioscan System 200 Imaging Scanner. Inhibition of enzyme activity was calculated by comparing the areas under the curve produced in the presence or absence of test compound. In the following tables, the superscripts indicate the number of experiments and, unless otherwise stated, the dose at which % inhibition is reported is 3 MPK.

Assay [2] has as its system CO (prostaglandin F2a or TxB2) in dog whole blood. Put plainly: Procedure IV: ex vivo eicosanoid synthesis in dog whole blood after oral dosing, CO. The following applies: Canis lupus familiaris, read-out: % INHIB/HOURS CO (Proc. IV); for inhibition at 1 mg/kg: 1 MPK; for inhibition at 5 mg/kg: 5 MPK. As to the method: (§1) Ex Vivo eicosanoid synthesis in dog whole blood. Adult beagle or mongrel dogs (10-15 kg) of either sex were fasted overnight prior to the initiation of each experiment. The forelimb was clipped and swabbed with an alcohol prep (70% isopropanol). Blood was drawn by venipuncture into syringes containing lithium heparin (Starstead, Newton N.C.) immediately prior to administration of compound or vehicle and then at various intervals following dosing. The test compound was administered orally as a suspension in 0.5% methocel. At various times after dosing, blood samples were drawn and placed on an electric rocker platform to assure complete and continuous mixing. White blood cell (wbc) counts were performed using a Sysmex hematology analyzer. This was done in an effort to normalize the number of leukocytes to be stimulated with calcium ionophore. A 1.0 mL aliquot of whole blood was challenged with 50 μL of a 2.6×10^-5 M solution of calcium ionophore A23187 (Calbiochem, La Jolla, Calif.) prepared in DMSO and diluted in HBSS. After a 15 minute incubation at 37° C., the reaction was stopped by placing the samples in an ice bath (4° C.) for 5 minutes and then centrifuged at 11,000×g for 5 minutes to separate the plasma fraction from blood cells. The plasma fraction was removed, diluted in an appropriate buffer, and analyzed for the presence of LTB4 and prostaglandin F2a or TxB2 by standard RIA techniques.
(§2) In the following tables, the superscripts indicate the number of experiments and, unless otherwise stated, the dose at which % inhibition is reported is 3 MPK.

The test system of assay [3] is 5-LO (LTB4) in dog whole blood. Put plainly: Procedure IV: ex vivo eicosanoid synthesis in dog whole blood after oral dosing, 5-LO. The conditions noted are these: Canis lupus familiaris, read-out: % INHIB/HOURS 5-LO (Proc. IV); for inhibition at 1 mg/kg: 1 MPK; for inhibition at 5 mg/kg: 5 MPK. As to the method:
as §1, §2

Like-named read-outs stand apart in the source and are kept apart here.

For `COc1ccc(-n2nc(COC(=O)NO)cc2-c2ccc(Cl)cc2)cc1` [1-A], in assay [1], the IC50 worked out at 2250 nM and the “% INHIB. CO (Procedure I)” value stood at 43%.
In the same order, the values of `COc1ccc(-n2nc(COC(=O)N(C)O)cc2-c2ccc(Cl)cc2)cc1` [1-B] are 730 nM and 100%.
`COc1ccc(-n2nc(COC(=O)N(O)C(C)C)cc2-c2ccc(Cl)cc2)cc1` [1-C]: in assay [1], the IC50 is 520 nM and the “% INHIB. CO (Procedure I)” value is 92%.
In the same order, the values of `COc1ccc(-n2nc(COC(=O)NO)c(Br)c2-c2ccc(Cl)cc2)cc1` [1-D] are 3100 nM and 43%.
For `COc1ccc(-n2nc(COC(=O)N(C)O)c(Br)c2-c2ccc(Cl)cc2)cc1` [1-E], in assay [1], the IC50 turned out to be 740 nM and the “% INHIB. CO (Procedure I)” value amounted to 100%.
As to `COc1ccc(-n2nc(COC(=O)N(O)C(C)C)c(Br)c2-c2ccc(Cl)cc2)cc1` [1-F], the inhibition at 7.5 mg/kg is 82% in assay [2] (7.5 MPK, 6 hours) and 38% in assay [3] (7.5 MPK, 6 hours). Also, the “% INHIB. CO (Procedure I)” value in assay [1] is given as 44%.
As for `COc1ccc(-n2nc(COC(=O)NO)c(Cl)c2-c2ccc(Cl)cc2)cc1` [1-G], in assay [1], the “% INHIB. CO (Procedure I)” value came to 28%.
As to `COc1ccc(-n2nc(COC(=O)N(C)O)c(Cl)c2-c2ccc(Cl)cc2)cc1` [1-H], in assay [1], the IC50 was 1150 nM and the “% INHIB. CO (Procedure I)” value is on record as 100%.
Consider `COc1ccc(-n2nc(COC(=O)N(O)C(C)C)c(Cl)c2-c2ccc(Cl)cc2)cc1` [1-I], for which, in assay [1], the IC50 was 5300 nM and the “% INHIB. CO (Procedure I)” value is listed as 18%.
Turning to `COc1ccc(-n2nc(COC(=O)NO)cc2-c2ccc(C)cc2)cc1` [1-J], in assay [1], half-maximal inhibition (IC50) was put at 730 nM and the “% INHIB. CO (Procedure I)” value is listed as 73%.
As to `COc1ccc(-n2nc(COC(=O)N(C)O)cc2-c2ccc(C)cc2)cc1` [1-K], the inhibition at 3 mg/kg in assay [2] (3 MPK, 2 hours) came to 95%; in assay [3] (3 MPK, 2 hours), 21%. In assay [1], this molecule displayed an IC50 of 510 nM. Also, the “% INHIB. CO (Procedure I)” value in assay [1] turned out to be 100%.
In the case of `COc1ccc(-n2nc(COC(=O)N(O)C(C)C)cc2-c2ccc(C)cc2)cc1` [1-L], the inhibition at 1 mg/kg in assay [2] (2 hours) came out at 68%. In addition, in assay [1], half-maximal inhibition (IC50) was put at 420 nM and the “% INHIB. CO (Procedure I)” value is 100%. The inhibition at 1 mg/kg in assay [3] (2 hours) was found to be 22%.
Turning to `COc1ccc(-n2nc(COC(=O)NO)c(Br)c2-c2ccc(C)cc2)cc1` [1-M], in assay [1], the midpoint of inhibition, the IC50, lay at 2310 nM and the “% INHIB. CO (Procedure I)” value was 75%.
As to `COc1ccc(-n2nc(COC(=O)N(C)O)c(Br)c2-c2ccc(C)cc2)cc1` [1-N], in assay [1], the IC50 stood at 890 nM and the “% INHIB. CO (Procedure I)” value is recorded as 100%.
The matching figures for `COc1ccc(-n2nc(COC(=O)N(O)C(C)C)c(Br)c2-c2ccc(C)cc2)cc1` [1-O]: 2660 nM and 59%.
As to `COc1ccc(-n2nc(COC(=O)NO)c(Cl)c2-c2ccc(C)cc2)cc1` [1-P], the inhibition at 5 mg/kg in assay [2] (2 hours) worked out at 72%. In addition, in assay [1], the IC50 worked out at 5000 nM and the “% INHIB. CO (Procedure I)” value was found to be 52%. Moreover, the inhibition at 5 mg/kg in assay [3] (2 hours) is 27%.
`COc1ccc(-n2nc(COC(=O)N(C)O)c(Cl)c2-c2ccc(C)cc2)cc1` [1-Q]: in assay [1], half-maximal inhibition (IC50) required 2160 nM and the “% INHIB. CO (Procedure I)” value is 93%.
Turning to `COc1ccc(-n2nc(COC(=O)N(O)C(C)C)c(Cl)c2-c2ccc(C)cc2)cc1` [1-R], the inhibition at 1 mg/kg turned out to be 7% in assay [2] (2 hours) and 6% in assay [3] (2 hours). The “% INHIB. CO (Procedure I)” value in assay [1] is reported as 11%.
As to `COc1ccc(-n2nc(CCOC(=O)N(C)O)cc2-c2ccc(Cl)cc2)cc1` [2-A], the inhibition at 2.5 mg/kg in assay [2] (2.5 MPK, 6 hours) amounted to 32%. Further, in assay [1], 2010 nM corresponded to half-maximal inhibition (IC50) and the “% INHIB. CO (Procedure I)” value stood at 100%. In assay [3] (2.5 MPK, 6 hours), the inhibition at 2.5 mg/kg worked out at 0%.
On to `COc1ccc(-n2nc(CCOC(=O)N(O)C(C)C)cc2-c2ccc(Cl)cc2)cc1` [2-B], for which the inhibition at 5 mg/kg in assay [2] (2 hours) is 33%. For the same molecule, in assay [1], the IC50 was 960 nM and the “% INHIB. CO (Procedure I)” value was found to be 100%. Moreover, the inhibition at 5 mg/kg in assay [3] (2 hours) turned out to be 0%.
For `COc1ccc(-n2nc(CCOC(=O)N(C)O)c(Cl)c2-c2ccc(Cl)cc2)cc1` [2-C], in assay [1], the IC50 came to 1850 nM and the “% INHIB. CO (Procedure I)” value amounted to 100%.
On to `COc1ccc(-n2nc(CCOC(=O)N(O)C(C)C)c(Cl)c2-c2ccc(Cl)cc2)cc1` [2-D], for which the figures for the inhibition at 5 mg/kg in assay [2] (2 hours) and in assay [3] (2 hours) were 41% and 32%, respectively. The same molecule came in with an IC50 in assay [1] of 290 nM. Moreover, in assay [1], the “% INHIB. CO (Procedure I)” value amounted to 63%.
As to `COc1ccc(-n2nc(CCOC(=O)N(C)O)c(Br)c2-c2ccc(Cl)cc2)cc1` [2-E], the results for the inhibition at 5 mg/kg in assay [2] (6 hours) and in assay [3] (6 hours) were 62% and 57%, respectively. Also, the IC50 in assay [1] amounted to 1970 nM. In addition, the “% INHIB. CO (Procedure I)” value in assay [1] amounted to 37%.
For the molecule `COc1ccc(-n2nc(CCOC(=O)N(C)O)cc2-c2ccc(C)cc2)cc1` [2-G], in assay [1], 410 nM corresponded to half-maximal inhibition (IC50) and the “% INHIB. CO (Procedure I)” value stood at 100%.
Consider `COc1ccc(-n2nc(CCOC(=O)N(O)C(C)C)cc2-c2ccc(C)cc2)cc1` [2-H], for which, in assay [1], the IC50 was 220 nM and the “% INHIB. CO (Procedure I)” value turned out to be 94%.
As to `COc1ccc(-n2nc(CCOC(=O)NO)c(Br)c2-c2ccc(C)cc2)cc1` [2-K], the “% INHIB. CO (Procedure I)” value in assay [1] was 21%.
For `COc1ccc(-n2nc(CCOC(=O)N(C)O)c(Br)c2-c2ccc(C)cc2)cc1` [2-L], in assay [1], the “% INHIB. CO (Procedure I)” value turned out to be 22%.
Consider `COc1ccc(-n2nc(CCCOC(=O)NO)cc2-c2ccc(Cl)cc2)cc1` [3-A], for which, in assay [1], half-maximal inhibition (IC50) required 4000 nM and the “% INHIB. CO (Procedure I)” value was 40%.
In the same order, the values of `COc1ccc(-n2nc(CCCOC(=O)N(O)C(C)C)cc2-c2ccc(Cl)cc2)cc1` [3-C] are 1400 nM and 53%.
The matching figures for `COc1ccc(-n2nc(CCCOC(=O)N(O)C(C)C)c(Br)c2-c2ccc(Cl)cc2)cc1` [3-G]: 14100 nM and 0%.

The term IC50 denotes the concentration that gives 50% inhibition. Low values mean greater potency, high ones weaker potency.
